Data reported in ChEMBL document CHEMBL1909046, “DrugMatrix in vitro pharmacology data”.
pIC50, pKi: −log10 of the molar value.

Experiments:
[1] = molecular target: Cannabinoid receptor 1 (Homo sapiens, UniProt P21554); type: cell membranes, Membrane; conditions: chem-1; also: in other assays of this panel Not Active means under 50% inhibition at 10 µM
[2] = molecular target: T1, D(4) dopamine receptor (Homo sapiens, UniProt P21917); experiment: DRUGMATRIX: Dopamine D4.2 radioligand binding (ligand: [3H] Spiperone); type: cell membranes, CHO-K1, Membrane; conditions: cho-k1; Not Active = under 50% inhibition at 10 µM
T1 sequence (P21917 whole entry): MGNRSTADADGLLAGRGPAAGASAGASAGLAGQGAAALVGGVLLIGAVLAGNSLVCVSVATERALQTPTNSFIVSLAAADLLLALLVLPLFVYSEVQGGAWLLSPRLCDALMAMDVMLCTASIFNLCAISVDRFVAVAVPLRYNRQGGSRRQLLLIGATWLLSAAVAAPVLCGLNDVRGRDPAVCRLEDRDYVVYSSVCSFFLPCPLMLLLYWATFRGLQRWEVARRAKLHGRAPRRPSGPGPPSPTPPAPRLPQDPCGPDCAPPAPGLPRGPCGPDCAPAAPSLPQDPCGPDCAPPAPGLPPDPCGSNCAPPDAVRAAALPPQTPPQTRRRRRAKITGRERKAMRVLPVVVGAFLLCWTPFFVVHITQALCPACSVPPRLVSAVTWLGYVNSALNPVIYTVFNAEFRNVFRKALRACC

[3] = DRUGMATRIX: Sodium/nucleoside co-transporter radioligand binding (ligand: nitrobenzylthioinosine); type: cell membranes, Cavia porcellus, Dunkin-Hartley, Cerebral cortex, Membrane; conditions: Not Active = under 50% inhibition at 10 µM
[4] = molecular target: T2, Cysteinyl leukotriene receptor 1 (Homo sapiens, UniProt Q9Y271); type: cell membranes, CHO-K1, Membrane; conditions: cho-k1; also: in other assays of this panel Not Active means under 50% inhibition at 10 µM
T2 sequence (Q9Y271 whole entry): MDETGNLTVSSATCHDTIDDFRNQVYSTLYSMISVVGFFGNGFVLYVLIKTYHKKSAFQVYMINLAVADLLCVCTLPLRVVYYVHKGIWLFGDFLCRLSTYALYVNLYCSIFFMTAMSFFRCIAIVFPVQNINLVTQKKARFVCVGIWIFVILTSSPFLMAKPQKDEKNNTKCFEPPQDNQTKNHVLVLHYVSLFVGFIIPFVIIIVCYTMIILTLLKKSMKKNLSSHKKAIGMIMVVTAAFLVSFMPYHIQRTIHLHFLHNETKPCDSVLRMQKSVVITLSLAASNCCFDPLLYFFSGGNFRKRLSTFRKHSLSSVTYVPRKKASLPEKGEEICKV

[5] = molecular target: T3, Adenosine receptor A3 (Homo sapiens, UniProt P0DMS8); type: cell membranes, CHO-K1, Membrane; conditions: cho-k1;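 also: radioligand binding assay with AB-MECA serving as the labeled ligand; in other assays of this panel Not Active means under 50% inhibition at 10 µM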
T3 sequence (P0DMS8 whole entry): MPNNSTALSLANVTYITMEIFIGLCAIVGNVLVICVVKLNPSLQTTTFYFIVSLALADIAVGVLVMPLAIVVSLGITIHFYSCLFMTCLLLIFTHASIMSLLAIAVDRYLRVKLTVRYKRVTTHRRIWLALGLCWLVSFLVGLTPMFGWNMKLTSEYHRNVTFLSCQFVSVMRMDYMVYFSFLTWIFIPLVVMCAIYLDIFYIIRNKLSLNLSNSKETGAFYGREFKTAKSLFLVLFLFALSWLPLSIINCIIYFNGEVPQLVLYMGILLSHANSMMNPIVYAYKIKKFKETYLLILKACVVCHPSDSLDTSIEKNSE

[6] = DRUGMATRIX: ATPase, Na+/K+ enzyme inhibition (substrate: ATP); type: tissue-based, Sus scrofa, Heart; conditions: Not Active = under 50% inhibition at 10 µM
[7] = molecular target: Mitogen-activated protein kinase 3 (Homo sapiens, UniProt P27361); experiment: DRUGMATRIX: Protein Serine/Threonine Kinase, ERK1 enzyme inhibition (substrate: Myelin Basic Protein); set-up: species or system Escherichia coli; conditions: Not Active = under 50% inhibition at 10 µM
[8] = molecular target: C-C chemokine receptor type 5 (Homo sapiens, UniProt P51681); type: cell membranes, Membrane; conditions: hek293; also: in other assays of this panel Not Active means under 50% inhibition at 10 µM
[9] = molecular target: Vasopressin V1a receptor (Homo sapiens, UniProt P37288); type: cell membranes, Membrane; conditions: hek293; also: in other assays of this panel Not Active means under 50% inhibition at 10 µM
[10] = molecular target: T4, Type-2 angiotensin II receptor (Homo sapiens, UniProt P50052); type: cell-based; conditions: cho-k1; also: in other assays of this panel Not Active means under 50% inhibition at 10 µM
T4 sequence (P50052 whole entry): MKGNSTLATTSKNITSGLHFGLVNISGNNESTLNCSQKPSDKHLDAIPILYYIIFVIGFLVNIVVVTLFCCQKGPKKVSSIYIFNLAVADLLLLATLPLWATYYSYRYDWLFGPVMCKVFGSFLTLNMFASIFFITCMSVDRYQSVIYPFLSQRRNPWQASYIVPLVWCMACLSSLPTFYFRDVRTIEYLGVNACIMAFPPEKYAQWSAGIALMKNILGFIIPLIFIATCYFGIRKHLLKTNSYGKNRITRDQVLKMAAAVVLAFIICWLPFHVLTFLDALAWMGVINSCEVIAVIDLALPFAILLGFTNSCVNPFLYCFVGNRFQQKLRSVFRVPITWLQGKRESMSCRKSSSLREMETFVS

[11] = molecular target: Cytochrome P450 2E1 (Homo sapiens, UniProt P05181); conditions: bti-tn-5b1-4; also: in other assays of this panel Not Active means under 50% inhibition at 10 µM
[12] = molecular target: Histamine H2 receptor (Homo sapiens, UniProt P25021); type: cell membranes, CHO-K1, Membrane; conditions: cho-k1; also: in other assays of this panel Not Active means under 50% inhibition at 10 µM
[13] = DRUGMATRIX: GABAA, Muscimol, Central radioligand binding (ligand: [3H] Muscimol); type: cell membranes, Rattus norvegicus, Wistar, Brain, Membrane; conditions: Not Active = under 50% inhibition at 10 µM
[14] = molecular target: Platelet-activating factor receptor (Homo sapiens, UniProt P25105); experiment: biochemical; type: tissue-based; conditions: platelet; also: in other assays of this panel Not Active means under 50% inhibition at 10 µM
[15] = molecular target: Nitric oxide synthase 1 (Rattus norvegicus, UniProt P29476); type: tissue-based, Cerebellum; also: in other assays of this panel Not Active means under 50% inhibition at 10 µM
[16] = molecular target: T5, Substance-K receptor (Homo sapiens, UniProt P21452); type: cell membranes, CHO, Membrane; conditions: cho; also: in other assays of this panel Not Active means under 50% inhibition at 10 µM
T5 sequence (P21452 whole entry): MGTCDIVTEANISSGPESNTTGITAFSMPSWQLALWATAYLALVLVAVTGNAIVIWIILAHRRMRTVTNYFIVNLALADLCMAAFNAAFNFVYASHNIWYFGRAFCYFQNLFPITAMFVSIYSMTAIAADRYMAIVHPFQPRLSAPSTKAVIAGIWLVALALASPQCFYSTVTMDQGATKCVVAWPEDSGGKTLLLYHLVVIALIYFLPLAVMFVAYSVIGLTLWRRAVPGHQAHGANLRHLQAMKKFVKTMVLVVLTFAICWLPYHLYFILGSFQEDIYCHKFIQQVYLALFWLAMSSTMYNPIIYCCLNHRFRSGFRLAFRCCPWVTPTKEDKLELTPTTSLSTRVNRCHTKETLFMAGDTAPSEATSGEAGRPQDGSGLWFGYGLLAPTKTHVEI

[17] = molecular target: Vascular endothelial growth factor receptor 1 (Homo sapiens, UniProt P17948); type: cell-based; conditions: huvec; also: in other assays of this panel Not Active means under 50% inhibition at 10 µM
[18] = DRUGMATRIX: Imidazoline I2, Central radioligand binding (ligand: [3H] Idazoxan); type: cell membranes, Rattus norvegicus, Wistar, Cerebral cortex, Membrane; conditions: Not Active = under 50% inhibition at 10 µM

Vascular endothelial growth factor receptor 1, sequence (P17948 whole entry): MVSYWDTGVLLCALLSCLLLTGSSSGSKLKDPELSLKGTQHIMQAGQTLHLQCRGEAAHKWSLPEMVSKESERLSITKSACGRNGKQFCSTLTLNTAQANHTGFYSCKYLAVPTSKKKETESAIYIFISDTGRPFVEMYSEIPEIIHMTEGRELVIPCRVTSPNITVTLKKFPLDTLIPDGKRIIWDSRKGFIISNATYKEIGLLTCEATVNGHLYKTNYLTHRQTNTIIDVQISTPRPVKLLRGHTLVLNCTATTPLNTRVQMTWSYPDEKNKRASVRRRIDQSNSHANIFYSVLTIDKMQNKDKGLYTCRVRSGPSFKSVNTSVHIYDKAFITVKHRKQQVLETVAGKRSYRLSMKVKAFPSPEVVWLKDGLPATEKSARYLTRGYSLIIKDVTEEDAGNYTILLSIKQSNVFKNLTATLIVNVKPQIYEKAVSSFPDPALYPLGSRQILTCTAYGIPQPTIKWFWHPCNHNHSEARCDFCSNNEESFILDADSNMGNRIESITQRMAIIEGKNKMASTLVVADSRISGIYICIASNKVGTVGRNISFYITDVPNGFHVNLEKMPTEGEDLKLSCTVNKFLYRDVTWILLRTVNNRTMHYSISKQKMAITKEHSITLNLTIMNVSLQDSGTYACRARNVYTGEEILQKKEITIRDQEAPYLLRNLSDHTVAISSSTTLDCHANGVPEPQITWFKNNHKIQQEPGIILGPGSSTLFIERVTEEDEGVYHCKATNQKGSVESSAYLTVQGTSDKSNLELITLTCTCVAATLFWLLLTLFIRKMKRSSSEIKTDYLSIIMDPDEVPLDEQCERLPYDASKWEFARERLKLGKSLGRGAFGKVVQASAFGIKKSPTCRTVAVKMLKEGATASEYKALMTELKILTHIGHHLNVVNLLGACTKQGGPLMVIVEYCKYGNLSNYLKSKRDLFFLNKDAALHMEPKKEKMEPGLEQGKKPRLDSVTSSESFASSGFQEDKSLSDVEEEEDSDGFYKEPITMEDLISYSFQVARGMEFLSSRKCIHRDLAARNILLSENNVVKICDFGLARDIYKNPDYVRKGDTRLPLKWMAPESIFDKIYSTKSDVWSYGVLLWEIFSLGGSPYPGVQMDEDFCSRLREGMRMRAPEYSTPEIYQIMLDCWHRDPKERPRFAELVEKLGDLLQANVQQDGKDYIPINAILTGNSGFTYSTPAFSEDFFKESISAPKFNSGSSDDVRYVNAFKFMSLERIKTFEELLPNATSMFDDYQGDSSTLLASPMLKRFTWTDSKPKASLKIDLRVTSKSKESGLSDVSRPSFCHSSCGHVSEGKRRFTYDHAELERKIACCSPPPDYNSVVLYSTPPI
Nitric oxide synthase 1, sequence (P29476 whole entry): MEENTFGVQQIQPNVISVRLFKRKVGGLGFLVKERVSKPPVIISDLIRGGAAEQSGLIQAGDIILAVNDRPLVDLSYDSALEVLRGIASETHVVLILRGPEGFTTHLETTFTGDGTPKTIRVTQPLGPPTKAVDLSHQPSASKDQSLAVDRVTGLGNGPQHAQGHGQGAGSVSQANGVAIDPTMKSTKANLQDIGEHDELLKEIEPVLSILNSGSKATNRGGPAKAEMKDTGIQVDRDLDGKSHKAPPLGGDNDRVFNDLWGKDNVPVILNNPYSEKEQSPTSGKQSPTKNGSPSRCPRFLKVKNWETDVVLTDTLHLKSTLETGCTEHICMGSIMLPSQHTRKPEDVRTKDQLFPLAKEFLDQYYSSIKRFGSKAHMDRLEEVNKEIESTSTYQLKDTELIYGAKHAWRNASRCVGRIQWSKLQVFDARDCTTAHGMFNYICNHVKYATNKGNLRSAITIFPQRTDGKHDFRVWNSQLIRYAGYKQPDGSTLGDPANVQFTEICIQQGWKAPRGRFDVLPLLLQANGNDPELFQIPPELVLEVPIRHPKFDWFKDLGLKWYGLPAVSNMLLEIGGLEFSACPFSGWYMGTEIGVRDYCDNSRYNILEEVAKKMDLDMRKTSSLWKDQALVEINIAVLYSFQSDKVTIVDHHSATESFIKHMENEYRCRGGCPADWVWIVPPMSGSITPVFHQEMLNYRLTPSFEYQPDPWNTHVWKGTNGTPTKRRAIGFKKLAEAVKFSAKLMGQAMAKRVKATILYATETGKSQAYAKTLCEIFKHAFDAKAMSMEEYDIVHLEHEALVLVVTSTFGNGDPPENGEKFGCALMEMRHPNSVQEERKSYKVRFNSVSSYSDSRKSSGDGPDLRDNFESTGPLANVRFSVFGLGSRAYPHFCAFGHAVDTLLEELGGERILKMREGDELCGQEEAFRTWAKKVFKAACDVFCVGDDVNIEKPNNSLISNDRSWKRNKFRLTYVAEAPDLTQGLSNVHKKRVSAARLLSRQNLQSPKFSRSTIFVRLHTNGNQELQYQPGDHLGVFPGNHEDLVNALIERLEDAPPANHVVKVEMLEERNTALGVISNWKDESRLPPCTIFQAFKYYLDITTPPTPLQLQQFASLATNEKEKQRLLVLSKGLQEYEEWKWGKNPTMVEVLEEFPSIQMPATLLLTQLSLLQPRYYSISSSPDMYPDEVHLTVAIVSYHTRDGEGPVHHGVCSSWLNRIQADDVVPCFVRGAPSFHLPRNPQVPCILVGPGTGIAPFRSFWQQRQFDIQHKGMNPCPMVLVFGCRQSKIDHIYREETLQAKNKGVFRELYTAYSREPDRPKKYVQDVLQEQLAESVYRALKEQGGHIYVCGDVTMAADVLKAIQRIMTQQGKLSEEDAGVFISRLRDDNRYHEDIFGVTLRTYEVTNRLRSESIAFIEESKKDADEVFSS
Cytochrome P450 2E1, sequence (P05181 whole entry): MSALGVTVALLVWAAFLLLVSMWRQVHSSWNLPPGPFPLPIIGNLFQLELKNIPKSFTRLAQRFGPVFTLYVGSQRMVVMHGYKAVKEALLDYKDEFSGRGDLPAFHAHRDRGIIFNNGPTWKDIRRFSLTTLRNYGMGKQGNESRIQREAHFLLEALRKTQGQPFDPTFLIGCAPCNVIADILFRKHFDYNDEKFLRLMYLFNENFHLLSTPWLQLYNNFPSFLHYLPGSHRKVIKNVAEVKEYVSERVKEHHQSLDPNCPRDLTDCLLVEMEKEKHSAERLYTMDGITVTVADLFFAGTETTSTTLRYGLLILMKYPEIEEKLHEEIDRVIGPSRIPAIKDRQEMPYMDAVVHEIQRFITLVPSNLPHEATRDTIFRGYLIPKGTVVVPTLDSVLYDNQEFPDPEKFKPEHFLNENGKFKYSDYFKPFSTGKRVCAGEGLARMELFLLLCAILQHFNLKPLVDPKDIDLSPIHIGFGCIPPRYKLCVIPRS
C-C chemokine receptor type 5, sequence (P51681 whole entry): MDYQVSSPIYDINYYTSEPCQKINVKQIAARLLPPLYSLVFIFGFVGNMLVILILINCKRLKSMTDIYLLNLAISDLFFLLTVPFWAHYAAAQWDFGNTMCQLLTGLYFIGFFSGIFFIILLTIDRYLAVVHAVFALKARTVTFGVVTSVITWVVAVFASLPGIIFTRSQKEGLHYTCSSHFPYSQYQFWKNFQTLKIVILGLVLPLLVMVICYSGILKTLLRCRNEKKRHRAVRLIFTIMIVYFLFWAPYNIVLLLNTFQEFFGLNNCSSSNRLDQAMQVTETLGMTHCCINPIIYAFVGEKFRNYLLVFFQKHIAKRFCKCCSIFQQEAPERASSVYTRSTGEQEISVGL
Platelet-activating factor receptor, sequence (P25105 whole entry): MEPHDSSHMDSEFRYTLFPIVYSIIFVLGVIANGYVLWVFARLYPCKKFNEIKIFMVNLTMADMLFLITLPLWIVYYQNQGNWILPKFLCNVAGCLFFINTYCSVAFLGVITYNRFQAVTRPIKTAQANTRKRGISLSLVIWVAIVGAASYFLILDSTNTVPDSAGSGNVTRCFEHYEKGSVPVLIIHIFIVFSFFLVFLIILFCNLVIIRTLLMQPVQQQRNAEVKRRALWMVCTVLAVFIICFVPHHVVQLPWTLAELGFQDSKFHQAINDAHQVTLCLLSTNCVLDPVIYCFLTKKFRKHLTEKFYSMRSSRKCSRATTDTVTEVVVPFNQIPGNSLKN
Mitogen-activated protein kinase 3, sequence (P27361 whole entry): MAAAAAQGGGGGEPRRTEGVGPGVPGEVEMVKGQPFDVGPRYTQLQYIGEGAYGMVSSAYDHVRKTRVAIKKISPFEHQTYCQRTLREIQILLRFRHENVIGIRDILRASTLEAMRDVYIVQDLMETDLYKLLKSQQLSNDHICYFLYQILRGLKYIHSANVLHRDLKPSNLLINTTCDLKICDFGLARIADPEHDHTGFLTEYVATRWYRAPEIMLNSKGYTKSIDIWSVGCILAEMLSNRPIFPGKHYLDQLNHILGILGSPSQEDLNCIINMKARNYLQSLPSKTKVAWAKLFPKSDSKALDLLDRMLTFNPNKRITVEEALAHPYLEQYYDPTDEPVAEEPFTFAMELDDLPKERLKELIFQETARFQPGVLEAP
Histamine H2 receptor, sequence (P25021 whole entry): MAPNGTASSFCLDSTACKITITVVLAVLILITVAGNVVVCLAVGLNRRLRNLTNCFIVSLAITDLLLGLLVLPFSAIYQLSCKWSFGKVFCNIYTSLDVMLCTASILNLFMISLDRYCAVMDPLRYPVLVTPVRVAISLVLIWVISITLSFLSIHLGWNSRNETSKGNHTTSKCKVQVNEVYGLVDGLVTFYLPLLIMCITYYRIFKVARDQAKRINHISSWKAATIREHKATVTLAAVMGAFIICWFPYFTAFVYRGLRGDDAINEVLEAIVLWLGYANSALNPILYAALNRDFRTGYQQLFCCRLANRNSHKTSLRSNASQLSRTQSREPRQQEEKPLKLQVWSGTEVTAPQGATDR

Row | SMILES | IC50 [1] | IC50 [2] | IC50 [4] | IC50 [5] | IC50 [6] | Ki [6] | IC50 [7] | IC50 [8] | IC50 [9] | IC50 [10] | IC50 [11] | Ki [11] | IC50 [12] | IC50 [13] | Ki [13] | IC50 [14] | IC50 [15] | IC50 [16] | IC50 [17] | IC50 [18] | also measured
1 | CC(=O)[C@H]1CC[C@H]2[C@@H]3CCC4=CC(=O)CC[C@]4(C)[C@H]3CC[C@]12C [PROGESTERONE] | Not Active | Not Active | Not Active | Not Active | Not Active | Not Active | Not Active | Not Active | Not Active | Not Active | Not Active | Not Active | Not Active | Not Active | Not Active | Not Active | Not Active | Not Active | Not Active | Not Active | pIC50 ([3]; read-out: IC50): 4.71; pKi ([3]; read-out: Ki): 5.17; Ki [18]: Not Active
2 | NC(=O)c1ncn([C@@H]2O[C@H](CO)[C@@H](O)[C@H]2O)n1 [RIBAVIRIN] | Not Active | Not Active | Not Active | Not Active | Not Active | Not Active | Not Active | Not Active | Not Active | Not Active | Not Active | Not Active | Not Active | Not Active | Not Active | Not Active | Not Active | Not Active | Not Active | Not Active | IC50 [3]: Not Active; Ki [3]: Not Active; Ki [18]: Not Active
3 | O=[N+]([O-])c1cc([As](=O)(O)O)ccc1O [ROXARSONE] | Not Active | Not Active | Not Active | Not Active | Not Active | Not Active | Not Active | Not Active | Not Active | Not Active | Not Active | Not Active | Not Active | Not Active | Not Active | Not Active | Not Active | Not Active | Not Active | Not Active | Ki [1]: Not Active; Ki [2]: Not Active; IC50 [3]: Not Active; Ki [3]: Not Active; Ki [4]: Not Active; Ki [5]: Not Active; Ki [7]: Not Active; Ki [8]: Not Active; Ki [9]: Not Active; Ki [10]: Not Active; Ki [12]: Not Active; Ki [14]: Not Active; Ki [15]: Not Active; Ki [16]: Not Active; Ki [17]: Not Active; Ki [18]: Not Active
4 | CC[C@H]1OC(=O)[C@H](C)[C@@H](O[C@H]2C[C@@](C)(OC)[C@@H](O)[C@H](C)O2)[C@H](C)[C@@H](O[C@@H]2O[C@H](C)C[C@H](N(C)C)[C@H]2O)[C@](C)(O)C[C@@H](C)/C(=N\OCOCCOC)[C@H](C)[C@@H](O)[C@]1(C)O [ROXITHROMYCIN] | Not Active | Not Active | Not Active | Not Active | Not Active | Not Active | Not Active | Not Active | Not Active | Not Active | Not Active | Not Active | Not Active | Not Active | Not Active | Not Active | Not Active | Not Active | Not Active | Not Active | IC50 [3]: Not Active; Ki [3]: Not Active; Ki [18]: Not Active
